Measurements published in patent US12570638B2, “Fused imidazole derivatives as AHR antagonists” (Sail Biomedicines, Inc., priority 2020, dated 2026).

Experiment: Plasma Protein Binding Determination with Ultracentrifugation Method
Assay type: in vitro ADME
Details: human plasma, read-out: Human plasma protein binding (% bound)
Description: The frozen plasma (stored at −80° C.) was thawed in a 37° C. water bath, followed by centrifugation at 3,220 g for 10 minutes to remove clots. The supernatant was removed into a new tube as the spun plasma. The spun plasma was pre-warmed in a 37° C. water bath for 10 minutes. The stock solutions of test compounds were diluted to 200 μM in DMSO, and then spiked into the plasma. Duplicate samples were prepared. The final concentration of compound was 1.0 μM. The final concentration of organic solvent was 0.5%. Warfarin was used as positive control in the assay. 1.0 mL of the spiked plasma was transferred to a new balance ultracentrifuge tube. Samples were incubated at 37° C., 5% CO2 for 30 minutes. After incubation, the balance ultracentrifuge tubes were centrifuged at 600,000 g for 5.5 hours at 37° C. […]
Data Analysis: All calculations were carried out using Microsoft Excel. The concentrations of test compound in plasma samples and post-ultracentrifugation plasma was determined from peak areas. The percentages of test compound bound was calculated as follows: […]

fraction unbound at 30 min, 1 μM: < 0.25
SMILES: Cn1ncnc1C(=O)Nc1ccc2nc(-c3ccccc3C(F)(F)F)[nH]c2c1 [Compound H, 1-methyl-N-(2-(2-(trifluoromethyl)phenyl)-1H-benzo[d]imidazol-6-yl)-1H-1,2,4-triazole-5-carboxamide]
